Measurements reported in patent US8618289B2 (Ambit Biosciences Corporation, priority 2008, dated 2013).

Legend:
[1] = test system: MEK1 phosphorylation in the A375 human melanoma cell line; assay: cells; conditions: A-375, read-out: pMEK IC50
Procedure: A375 cells (from American Type Culture Collection) were plated at 50,000 cells per well in DMEM (Mediatech) with 10% fetal bovine serum (Omega Scientific) into a 96 well plate and incubated overnight in a 37° C. incubator with 10% CO2. The cells were then washed with PBS and the medium replaced with 0.5% FBS for incubation overnight. […] The cells were incubated with compound or control for two hours at 37° C. The compound solution was aspirated off and the cells washed with cold PBS. […] The plate was centrifuged for 30 minutes to pellet out the cell debris. The cleared lysates were transferred to a 96-well Nunc plate and the ELISA protocol described by the manufacturer in Catalog #KHO0321 or KHO0291 was followed.

[2] = test system: A375 cells; assay: cells; conditions: Homo sapiens, A-375, read-out: A375 Viability EC50
Procedure: The following day, the medium was replaced with 0.5% FBS in M3 for overnight incubation. […] The cells were incubated with compound or control for 72 hours at 37° C. under 10% CO2. Following incubation, Cell Titer Blue reagent (Promega) was added to each well containing compounds or controls, and then incubated for 3 hours at 37° C. under 10% CO2. Proliferation was measured by fluorescence with excitation at 560 nm and emission at 590 nm using SoftMax Pro.

[3] = target: RAF kinases (Homo sapiens, UniProt P15056); assay: biochemical
Sequence of RAF kinases (P15056 whole entry): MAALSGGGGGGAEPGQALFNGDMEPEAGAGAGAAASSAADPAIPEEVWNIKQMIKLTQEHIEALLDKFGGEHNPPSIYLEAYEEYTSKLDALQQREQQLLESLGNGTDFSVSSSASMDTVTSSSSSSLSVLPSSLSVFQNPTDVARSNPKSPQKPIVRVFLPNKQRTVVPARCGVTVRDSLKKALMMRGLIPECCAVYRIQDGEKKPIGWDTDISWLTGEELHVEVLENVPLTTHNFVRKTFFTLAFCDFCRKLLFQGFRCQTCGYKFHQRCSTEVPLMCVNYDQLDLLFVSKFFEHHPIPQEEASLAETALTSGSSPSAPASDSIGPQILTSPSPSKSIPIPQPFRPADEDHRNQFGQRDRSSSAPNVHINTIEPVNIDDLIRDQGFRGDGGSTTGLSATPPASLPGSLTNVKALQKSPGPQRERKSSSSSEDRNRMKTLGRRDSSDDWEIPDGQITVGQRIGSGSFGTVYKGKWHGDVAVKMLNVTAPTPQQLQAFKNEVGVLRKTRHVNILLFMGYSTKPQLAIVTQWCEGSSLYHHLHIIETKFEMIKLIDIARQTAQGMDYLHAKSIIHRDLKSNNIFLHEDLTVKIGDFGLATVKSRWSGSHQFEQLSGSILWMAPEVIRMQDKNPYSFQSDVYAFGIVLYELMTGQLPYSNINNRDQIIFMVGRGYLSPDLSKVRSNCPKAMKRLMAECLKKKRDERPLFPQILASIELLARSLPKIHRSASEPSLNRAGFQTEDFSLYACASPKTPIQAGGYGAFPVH

| SMILES | IC50 [1] [nM] | EC50 [2] [nM] | Kd [3] [nM] |
| --- | --- | --- | --- |
| COc1cc2ncnc(Oc3cccc(NC(=O)Nc4cccc(C(C)(C)C)c4)c3)c2cc1OC [Ex 118, 1-(3-tert-butylphenyl)-3-(3-(6,7-dimethoxyquinazolin-4-yloxy)phenyl)urea] | 250 to 500 | > 1000 | 250 to 500 |
| COc1cc2ncnc(Oc3cccc(NC(=O)Nc4cc(C5CC5)no4)c3)c2cc1OC [Ex 124, 1-(3-cyclopropylisoxazol-5-yl)-3-(3-(6,7-dimethoxyquinazolin-4-yloxy)phenyl)urea] | > 1000 | > 1000 | – |
| COc1cc2ncnc(Oc3cccc(NC(=O)Nc4cc(C(C)(C)C)on4)c3)c2cc1O[C@H]1CCN(CC(F)F)C1 [Ex 110, (S)-1-(5-tert-butylisoxazol-3-yl)-3-(3-(6-(1-(2,2-difluoroethyl)pyrrolidin-3-yloxy)-7-methoxyquinazolin-4-yloxy)phenyl)urea] | < 250 | < 250 | 250 to 500 |
| COc1cc2ncnc(Oc3cccc(NC(=O)Nc4cc(C(C)(C)C)on4)c3)c2cc1OC[C@@H](O)CN1CCN(C)CC1 [Ex 111, (S)-1-(5-tert-butylisoxazol-3-yl)-3-(3-(6-(2-hydroxy-3-(4-methylpiperazin-1-yl)propoxy)-7-methoxyquinazolin-4-yloxy)phenyl)urea] | < 250 | 250 to 500 | 250 to 500 |
| COc1cc2ncnc(Sc3cccc(NC(=O)Nc4cc(C(C)(C)C)on4)c3)c2cc1OCCN1CCS(=O)(=O)CC1 [Ex 71, 1-(5-tert-butyl-isoxazol-3-yl)-3-(3-{6-[2-(1,1-dioxo-thiomorpholin-4-yl)-ethoxy]-7-methoxy-quinazolin-4-ylsulfanyl}-phenyl)-urea] | < 250 | 250 to 500 | – |
| COc1cc2ncnc(Oc3cccc(NC(=O)Nc4ccc(OC(F)(F)F)cc4)c3)c2cc1OC [Ex 177, 1-(3-(6,7-dimethoxyquinazolin-4-yloxy)phenyl)-3-(4-(trifluoromethoxy)phenyl)urea] | > 1000 | > 1000 | 250 to 500 |
| COc1cc2nc(Cl)nc(Sc3cccc(NC(=O)Nc4cc(C(C)(C)C)on4)c3)c2cc1OC [Ex 89, 1-(5-tert-butylisoxazol-3-yl)-3-(3-(2-chloro-6,7-dimethoxyquinazolin-4-ylthio)phenyl)urea] | > 1000 | – | – |
| COc1cc2ncnc(Oc3cccc(NC(=O)Nc4cc(C(C)(C)C)on4)c3)c2cc1OCCCN1CCOCC1 [Ex 22, 1-(5-tert-butylisoxazol-3-yl)-3-(3-(7-methoxy-6-(3-morpholinopropoxy)quinazolin-4-yloxy)phenyl)urea] | < 250 | < 250 | – |
| COc1cc2ncnc(Sc3cccc(NC(=O)Nc4cc(C(C)(C)C)on4)c3)c2cc1OCCCS(C)(=O)=O [Ex 64, 1-(5-tert-butylisoxazol-3-yl)-3-(3-(7-methoxy-6-(3-(methylsulfonyl)propoxy)quinazolin-4-ylthio)phenyl)urea] | < 250 | 250 to 500 | – |
| COc1cc2ncnc(Oc3cccc(NC(=O)Nc4cc(C(C)(C)C)on4)c3)c2cc1O[C@H]1CCN(C)C1 [Ex 109, (S)-1-(5-tert-butylisoxazol-3-yl)-3-(3-(7-methoxy-6-(1-methylpyrrolidin-3-yloxy)quinazolin-4-yloxy)phenyl)urea] | < 250 | 250 to 500 | – |
| COc1cc2c(Oc3cccc(NC(=O)Nc4cc(C(C)(C)C)on4)c3)ncnc2cc1OC[C@H](O)CN1CCN(C)CC1 [Ex 100, (R)-1-(5-tert-butylisoxazol-3-yl)-3-(3-(7-(2-hydroxy-3-(4-methylpiperazin-1-yl)propoxy)-6-methoxyquinazolin-4-yloxy)phenyl)urea] | < 250 | < 250 | – |
| COc1cc2ncnc(Sc3cccc(NC(=O)Nc4cc(C(C)(C)C)on4)c3)c2cc1OCCS(C)(=O)=O [Ex 88, 1-(5-tert-butylisoxazol-3-yl)-3-(3-(7-methoxy-6-(2-(methylsulfonyl)ethoxy)quinazolin-4-ylthio)phenyl)urea] | < 250 | 500 to 1000 | – |
| COc1cc2ncnc(Oc3cccc(NC(=O)Nc4cc(C(C)C)no4)c3)c2cc1OC [Ex 122, 1-(3-(6,7-dimethoxyquinazolin-4-yloxy)phenyl)-3-(3-isopropylisoxazol-5-yl)urea] | 250 to 500 | > 1000 | – |
| COc1cc2c(Oc3cccc(NC(=O)Nc4cc(C(C)(C)C)on4)c3)ncnc2cc1O[C@H]1CCN(CC(F)(F)F)C1 [Ex 104, (S)-1-(5-tert-butylisoxazol-3-yl)-3-(3-{6-methoxy-7-[1-(2,2,2-trifluoroethyl)pyrrolidin-3-yloxy]quinazolin-4-yloxy}phenyl)urea] | 500 to 1000 | > 1000 | – |
| COc1cc2c(Oc3cccc(NC(=O)Nc4cc(C(C)(C)C)on4)c3)ncnc2cc1OC1CCN(CC(F)F)CC1 [Ex 105, 1-(5-tert-butylisoxazol-3-yl)-3-(3-{7-[1-(2,2-difluoroethyl)piperidin-4-yloxy]-6-methoxyquinazolin-4-yloxy}phenyl)urea] | > 1000 | > 1000 | – |

The next lines start with the values.

| IC50 [1] [nM] | EC50 [2] [nM] | Kd [3] [nM] | SMILES |
| --- | --- | --- | --- |
| < 250 | – | – | COc1cc2ncnc(Sc3cccc(NC(=O)Nc4cc(C(C)(C)C)nn4-c4ccccc4)c3)c2cc1OC [Ex 154, 1-(3-tert-butyl-1-phenyl-1H-pyrazol-5-yl)-3-(3-(6,7-dimethoxyquinazolin-4-ylthio)phenyl)urea] |
| < 250 | 500 to 1000 | – | COc1cc2ncnc(Sc3cccc(NC(=O)Nc4cc(C(F)(F)F)nn4C)c3)c2cc1OC [Ex 193, 1-[3-(6,7-dimethoxyquinazolin-4-ylthio)phenyl]-3-[1-methyl-3-(trifluoromethyl)-1H-pyrazol-5-yl]urea] |
| 250 to 500 | > 1000 | – | COc1cc2ncnc(Oc3cccc(NC(=O)Nc4cc(C(F)(F)F)nn4C)c3)c2cc1OC [Ex 164, 1-[3-(6,7-dimethoxyquinazolin-4-yloxy)phenyl]-3-[1-methyl-3-(trifluoromethyl)-1H-pyrazol-5-yl]urea] |
| 500 to 1000 | > 1000 | – | COCC(C)(C)c1cc(NC(=O)Nc2cccc(Oc3ncnc4cc(OC)c(OC)cc34)c2)on1 [Ex 128, 1-(3-(6,7-dimethoxyquinazolin-4-yloxy)phenyl)-3-(3-(1-methoxy-2-methylpropan-2-yl)isoxazol-5-yl)urea] |
| < 250 | 250 to 500 | – | COc1cc2ncnc(Oc3cccc(NC(=O)Nc4cc(C(C)(C)F)on4)c3)c2cc1OC [Ex 136, 1-(3-(6,7-dimethoxyquinazolin-4-yloxy)phenyl)-3-(5-(2-fluoropropan-2-yl)isoxazol-3-yl)urea] |
| 250 to 500 | 500 to 1000 | – | COc1cc2ncnc(Oc3cccc(NC(=O)Nc4cc(C(C)C)on4)c3)c2cc1OC [Ex 133, 1-(3-(6,7-dimethoxyquinazolin-4-yloxy)phenyl)-3-(5-isopropylisoxazol-3-yl)urea] |
| > 1000 | > 1000 | – | COc1ccc(NC(=O)Nc2cccc(Oc3ncnc4cc(OC)c(OC)cc34)c2)cc1Cl [Ex 180, 1-(3-chloro-4-methoxyphenyl)-3-(3-(6,7-dimethoxyquinazolin-4-yloxy)phenyl)urea] |
| 500 to 1000 | > 1000 | – | COc1cc2ncnc(Oc3cccc(NC(=O)Nc4cc(C(F)(F)F)ccn4)c3)c2cc1OC [Ex 141, 1-(3-(6,7-dimethoxyquinazolin-4-yloxy)phenyl)-3-(4-(trifluoromethyl)pyridin-2-yl)urea] |
| 250 to 500 | 500 to 1000 | – | COc1cc2ncnc(Oc3cccc(NC(=O)Nc4cc(C(F)(F)F)n(C)n4)c3)c2cc1OC [Ex 165, 1-[3-(6,7-dimethoxyquinazolin-4-yloxy)phenyl]-3-[1-methyl-5-(trifluoromethyl)-1H-pyrazol-3-yl]urea] |
| < 250 | 500 to 1000 | – | COc1cc2ncnc(Oc3cccc(NC(=O)Nc4cc(C(C)(CF)CF)nn4-c4ccccc4)c3)c2cc1OC [Ex 167, 1-[3-(1,3-difluoro-2-methylpropan-2-yl)-1-phenyl-1H-pyrazol-5-yl]-3-[3-(6,7-dimethoxyquinazolin-4-yloxy)phenyl]urea] |
| > 1000 | > 1000 | – | COc1cc2ncnc(Oc3cccc(NC(=O)Nc4ccc(Cl)cc4)c3)c2cc1OC [Ex 175, 1-(4-chlorophenyl)-3-(3-(6,7-dimethoxyquinazolin-4-yloxy)phenyl)urea] |
| 250 to 500 | > 1000 | – | COc1cc2ncnc(Oc3cccc(NC(=O)Nc4cc(C(F)(F)F)n(-c5ccccc5)n4)c3)c2cc1OC [Ex 169, 1-[3-(6,7-dimethoxyquinazolin-4-yloxy)phenyl]-3-[1-phenyl-5-(trifluoromethyl)-1H-pyrazol-3-yl]urea] |
| < 250 | > 1000 | – | COc1cc2ncnc(Sc3cccc(NC(=O)Nc4cc(C(C)(CF)CF)nn4-c4ccccc4)c3)c2cc1OC [Ex 196, 1-[3-(1,3-difluoro-2-methylpropan-2-yl)-1-phenyl-1H-pyrazol-5-yl]-3-[3-(6,7-dimethoxyquinazolin-4-ylthio)phenyl]urea] |
| 250 to 500 | > 1000 | – | COc1cc2ncnc(Oc3cccc(NC(=O)Nc4cc(C5(C)CC5)on4)c3)c2cc1OC [Ex 127, 1-(3-(6,7-dimethoxyquinazolin-4-yloxy)phenyl)-3-(5-(1-methylcyclopropyl)isoxazol-3-yl)urea] |
| 250 to 500 | > 1000 | – | COCCOc1cc2ncnc(Oc3cccc(NC(=O)Nc4ccc(OC)c(C(F)(F)F)c4)c3)c2cc1OC [Ex 139, 1-(4-methoxy-3-(trifluoromethyl)phenyl)-3-(3-(6-methoxy-7-(2-methoxyethoxy)quinazolin-4-yloxy)phenyl)urea] |
| < 250 | 250 to 500 | – | COc1cc2ncnc(Oc3cccc(NC(=O)Nc4cc(C5CCCC5)on4)c3)c2cc1OC [Ex 135, 1-(5-cyclopentylisoxazol-3-yl)-3-(3-(6,7-dimethoxyquinazolin-4-yloxy)phenyl)urea] |
| > 1000 | > 1000 | – | COc1cc2ncnc(Oc3cccc(NC(=O)Nc4cccc(C(F)(F)F)c4)c3)c2cc1OC [Ex 181, 1-(3-(6,7-dimethoxyquinazolin-4-yloxy)phenyl)-3-(3-(trifluoromethyl)phenyl)urea] |
| 250 to 500 | > 1000 | – | COc1cc2ncnc(Sc3cccc(NC(=O)Nc4cc(C(C)C)on4)c3)c2cc1OC [Ex 134, 1-(3-(6,7-dimethoxyquinazolin-4-ylthio)phenyl)-3-(5-isopropylisoxazol-3-yl)urea] |
